# “And” between values parts separate entries of the source, which are not always exact repeats. Equal values may be shown once. Read-outs that look alike come from different tables or passages of the source.
# Legend:
# Assay in all cases: Chemosensitivity, 96 h continuous exposure, MTT assay;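 as to SI (NPI): adult human brain neural progenitor non-cancer cells from an epilepsy surgery patient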;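 as to Selectivity Index using the NPI non-cancer cell line: adult human brain neural progenitor non-cancer cells from an epilepsy surgery patient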
# Type in all cases: cell-based, human
# [1] = tested on: PSN1;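 as to SI (NPI): adult human brain neural progenitor non-cancer cells from an epilepsy surgery patient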;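 as to Selectivity Index using the NPI non-cancer cell line: adult human brain neural progenitor non-cancer cells from an epilepsy surgery patient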
# How it was run: (§1)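 Growth inhibition is measured by MTT after cells are dosed for 96 h without washout. The 50% growth-reduction concentration is then interpolated from the curves.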
# [2] = tested on: HCT116 p53-/-
# How it was run: (§2)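 Cells seeded at 2 × 10^3/well (GBM1 3 × 10^3/well) and left overnight at 37 °C, then exposed continuously for 96 h to a range of compound concentrations (final DMSO 0.2%). Viability read by MTT, absorbance at 540 nm; IC50 taken from dose-response curves as concentration reducing cell growth by 50%.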
# [3] = tested on: H460
# How it was run: as §1
# [4] = tested on: MiaPaCa2
# How it was run: as §2
# [5] = tested on: ARPE-19 non-cancer cells
# How it was run: as §2
# [6] = tested on: HT-29
# How it was run: as §2
# [7] = tested on: A549
# How it was run: as §2
structure (smiles),measurement,setting,value
[Cu+2].[Cu+2].[Cu+2].c1ccc(-c2csc(NCCN(CCNc3nc(-c4ccccn4)cs3)CCNc3nc(-c4ccccn4)cs3)n2)nc1.c1ccc(-c2csc(NCCN(CCNc3nc(-c4ccccn4)cs3)CCNc3nc(-c4ccccn4)cs3)n2)nc1 [[L2Cu3]6+],Selectivity index (ARPE19),[1]; IC50 ARPE-19 / IC50 PSN1,8.16
same,Selectivity index (MCF10A),[1]; IC50 MCF10A / IC50 PSN1,7.48
same,Selectivity Index using the NPI non-cancer cell line,[1]; IC50 NP1 / IC50 PSN1,6.68
same,IC50,"[1]; PSN1, 96 h, MTT, individual run, read-out: IC50 values for each replicate",6.27 µM and 6.08 µM and 7.01 µM
same,IC50,"[1]; PSN1, 96 h, MTT, mean of at least 3 independent experiments, listed as [L2Cu3]^6+, read-out: Mean IC50",> 1 µM
same,IC50,"[1]; PSN1, 96 h, MTT, mean of at least 3 independent experiments, read-out: Mean IC50",6.45 µM
same,IC50,"[1]; PSN1, mean of replicates, read-out: Mean IC50",6.45 µM
same,IC50,"[1]; PSN1, read-out: Mean IC50 values",6.45 µM
same,SI (ARPE19),[1]; mean IC50 ARPE-19 / mean IC50 PSN1,8.16
same,SI (MCF10A),[1]; mean IC50 MCF10A / mean IC50 PSN1,7.48
same,SI (NPI),[1]; mean IC50 NP1 / mean IC50 PSN1,6.68
same,"Relative potency (+ anion to no anion), Ratio + anion:no anion","[1]; ratio of IC50, PSN1",1
same,"Selectivity indices relative to ARPE-19, Ratio + anion:no anion","[1]; ratio of SI (ARPE-19), PSN1",1
same,"Selectivity indices relative to MCF10A, Ratio + anion:no anion","[1]; ratio of SI (MCF 10A), PSN1",1
same,IC50,"[2]; HCT116 p53-/-, 96 h, MTT, individual run, read-out: IC50 values for each replicate",0.238 µM and 0.09 µM and 0.189 µM and 0.087 µM and 0.067 µM and 0.155 µM
same,IC50,"[2]; HCT116 p53-/-, 96 h, MTT, mean of at least 3 independent experiments, read-out: Mean IC50",0.137 µM
same,IC50,"[2]; HCT116 p53-/-, mean of replicates, read-out: Mean IC50",0.137 µM
same,IC50,"[2]; HCT116 p53-/-, read-out: Mean IC50 values",0.137 µM
same,Selectivity index (ARPE19),[2]; IC50 ARPE-19 / IC50 HCT116 p53-/-,384.16 and 384.82
same,Selectivity index (MCF10A),[2]; IC50 MCF10A / IC50 HCT116 p53-/-,352.26
same,Selectivity Index using the NPI non-cancer cell line,[2]; IC50 NP1 / IC50 HCT116 p53-/-,314.53
same,SI (ARPE19),[2]; mean IC50 ARPE-19 / mean IC50 HCT116 p53-/-,384.16
same,SI (MCF10A),[2]; mean IC50 MCF10A / mean IC50 HCT116 p53-/-,352.26
same,SI (NPI),[2]; mean IC50 NP1 / mean IC50 HCT116 p53-/-,314.53
same,"Relative potency (+ anion to no anion), Ratio + anion:no anion","[2]; ratio of IC50, HCT116 p53-/-",1
same,"Selectivity indices relative to ARPE-19, Ratio + anion:no anion","[2]; ratio of SI (ARPE-19), HCT116 p53-/-",1
same,"Selectivity indices relative to MCF10A, Ratio + anion:no anion","[2]; ratio of SI (MCF 10A), HCT116 p53-/-",1
same,IC50,"[3]; H460, 96 h, MTT, individual run, read-out: IC50 values for each replicate",0.257 µM and 0.234 µM and 0.451 µM and 0.164 µM
same,IC50,"[3]; H460, 96 h, MTT, mean of at least 3 independent experiments, read-out: Mean IC50",0.276 µM
same,IC50,"[3]; H460, mean of replicates, read-out: Mean IC50",0.276 µM
same,IC50,"[3]; H460, read-out: Mean IC50 values",0.276 µM
same,Selectivity index (ARPE19),[3]; IC50 ARPE-19 / IC50 H460,190.69
same,Selectivity index (MCF10A),[3]; IC50 MCF10A / IC50 H460,174.86
same,Selectivity Index using the NPI non-cancer cell line,[3]; IC50 NP1 / IC50 H460,156.12
same,SI (ARPE19),[3]; mean IC50 ARPE-19 / mean IC50 H460,190.69
same,SI (MCF10A),[3]; mean IC50 MCF10A / mean IC50 H460,174.86
same,SI (NPI),[3]; mean IC50 NP1 / mean IC50 H460,156.12
same,"Relative potency (+ anion to no anion), Ratio + anion:no anion","[3]; ratio of IC50, H460",1
same,"Selectivity indices relative to ARPE-19, Ratio + anion:no anion","[3]; ratio of SI (ARPE-19), H460",1
same,"Selectivity indices relative to MCF10A, Ratio + anion:no anion","[3]; ratio of SI (MCF 10A), H460",1
same,Selectivity index (ARPE19),[4]; IC50 ARPE-19 / IC50 MiaPaCa2,4.46
same,Selectivity index (MCF10A),[4]; IC50 MCF10A / IC50 MiaPaCa2,4.09
same,Selectivity Index using the NPI non-cancer cell line,[4]; IC50 NP1 / IC50 MiaPaCa2,3.65
same,IC50,"[4]; MiaPaCa2, 96 h, MTT, individual run, read-out: IC50 values for each replicate",17.1 µM and 6.6 µM and 6.32 µM and 5.21 µM and 18 µM and 17.6 µM
same,IC50,"[4]; MiaPaCa2, 96 h, MTT, mean of at least 3 independent experiments, listed as [L2Cu3]^6+, read-out: Mean IC50",> 10 µM
same,IC50,"[4]; MiaPaCa2, 96 h, MTT, mean of at least 3 independent experiments, read-out: Mean IC50",11.8 µM
same,IC50,"[4]; MiaPaCa2, mean of replicates, read-out: Mean IC50",11.8 µM
same,IC50,"[4]; MiaPaCa2, read-out: Mean IC50 values",11.8 µM
same,SI (ARPE19),[4]; mean IC50 ARPE-19 / mean IC50 MiaPaCa2,4.46
same,SI (MCF10A),[4]; mean IC50 MCF10A / mean IC50 MiaPaCa2,4.09
same,SI (NPI),[4]; mean IC50 NP1 / mean IC50 MiaPaCa2,3.65
same,"Relative potency (+ anion to no anion), Ratio + anion:no anion","[4]; ratio of IC50, MiaPaCa2",1
same,"Selectivity indices relative to ARPE-19, Ratio + anion:no anion","[4]; ratio of SI (ARPE-19), MiaPaCa2",1
same,"Selectivity indices relative to MCF10A, Ratio + anion:no anion","[4]; ratio of SI (MCF 10A), MiaPaCa2",1
same,IC50,"[5]; ARPE-19, 96 h, MTT, individual run, read-out: IC50 values for each replicate",49.1 µM and 43.8 µM and 57.7 µM and 66.2 µM and 46.5 µM
same,IC50,"[5]; ARPE-19, 96 h, MTT, mean of at least 3 independent experiments, read-out: Mean IC50",52.6 µM
same,IC50,"[5]; ARPE-19, mean of replicates, read-out: Mean IC50",52.6 µM
same,IC50,"[5]; ARPE-19 non-cancer, read-out: Mean IC50 values",52.6 µM
same,"Relative potency (+ anion to no anion), Ratio + anion:no anion","[5]; ratio of IC50, ARPE-19",1
same,IC50,"[6]; HT29, mean of replicates, read-out: Mean IC50",0.213 µM
same,IC50,"[6]; HT29, read-out: Mean IC50 values",0.214 µM
same,IC50,"[6]; HT-29, 96 h, MTT, individual run, read-out: IC50 values for each replicate",0.184 µM and 0.21 µM and 0.273 µM and 0.226 µM and 0.174 µM
same,IC50,"[6]; HT-29, 96 h, MTT, mean of at least 3 independent experiments, read-out: Mean IC50",0.214 µM
same,Selectivity index (ARPE19),[6]; IC50 ARPE-19 / IC50 HT29,245.93
same,Selectivity index (MCF10A),[6]; IC50 MCF10A / IC50 HT29,225.51
same,Selectivity Index using the NPI non-cancer cell line,[6]; IC50 NP1 / IC50 HT29,201.36
same,SI (ARPE19),[6]; mean IC50 ARPE-19 / mean IC50 HT-29,245.93
same,SI (MCF10A),[6]; mean IC50 MCF10A / mean IC50 HT-29,225.51
same,SI (NPI),[6]; mean IC50 NP1 / mean IC50 HT-29,201.36
same,"Relative potency (+ anion to no anion), Ratio + anion:no anion","[6]; ratio of IC50, HT29",1
same,"Selectivity indices relative to ARPE-19, Ratio + anion:no anion","[6]; ratio of SI (ARPE-19), HT29",1
same,"Selectivity indices relative to MCF10A, Ratio + anion:no anion","[6]; ratio of SI (MCF 10A), HT29",1
same,IC50,"[7]; A549, 96 h, MTT, individual run, read-out: IC50 values for each replicate",0.256 µM and 0.189 µM and 0.254 µM
same,IC50,"[7]; A549, 96 h, MTT, mean of at least 3 independent experiments, read-out: Mean IC50",0.233 µM
same,IC50,"[7]; A549, mean of replicates, read-out: Mean IC50",0.233 µM
same,IC50,"[7]; A549, read-out: Mean IC50 values",0.233 µM
same,Selectivity index (ARPE19),[7]; IC50 ARPE-19 / IC50 A549,225.88
same,Selectivity index (MCF10A),[7]; IC50 MCF10A / IC50 A549,207.12
same,Selectivity Index using the NPI non-cancer cell line,[7]; IC50 NP1 / IC50 A549,184.94
same,SI (ARPE19),[7]; mean IC50 ARPE-19 / mean IC50 A549,225.88
same,SI (MCF10A),[7]; mean IC50 MCF10A / mean IC50 A549,207.12
same,SI (NPI),[7]; mean IC50 NP1 / mean IC50 A549,184.94
same,"Relative potency (+ anion to no anion), Ratio + anion:no anion","[7]; ratio of IC50, A549",1
same,"Selectivity indices relative to ARPE-19, Ratio + anion:no anion","[7]; ratio of SI (ARPE-19), A549",1
same,"Selectivity indices relative to MCF10A, Ratio + anion:no anion","[7]; ratio of SI (MCF 10A), A549",1
